Laboratory results published in patent publication US20020142347A1, “Biosensor” (BIOSENSOR ApS, priority 2000, published 2002).
Like-named read-outs stand apart in the source and are kept apart here.

How the values were obtained:
FACI-24 [1] = molecular target: T1, FACI-24 (Bos taurus, UniProt P07107, M25C); experiment: Fluorescence titration equilibrium binding analysis of CoA and acyl-CoA esters to FACI-24; set-up: species or system bovine; conditions: FACI-24 (1.5 μM) titrated with increasing CoA and acyl-CoA concentration; fitted binding curves, emission 460 nm; read-out: Kd (nM) ± S.E.
T1 construct: made in house; host or cells: E. coli BL21(DE3)pLysS, pET3a vector
T1 sequence (P07107 2-87 M25C): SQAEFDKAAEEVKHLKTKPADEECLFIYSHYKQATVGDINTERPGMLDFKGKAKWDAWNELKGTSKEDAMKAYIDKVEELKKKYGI
Method: Development of a mathematical expression describing the relationship between acyl-CoA concentration and FACI-24 fluorescence was performed essentially as by Richieri et al 1992, J Biol Chem, 267:23495-23501. However, where ligand binding to ADIFAB induces both a fluorescence intensity increase around 505 nm and a fluorescence intensity decrease around 432 nm, ligand binding to FACI-24 only causes an increase in fluorescence around 460 nm.
Derivatisation of an expression for the fluorescence value as a function of the acyl-coA concentration was done using the Scatchard equation as a starting point: [formula]
which has been used to fit the titration data.
The curves represent the best fit analysis from two independent experiment calculated and normalized as described above. The FACI-24 binding affinity increases dramatically when the acyl-chain length increases from C8 to C10 and C12, a smaller but significant drop in Kd is seen by increasing chain length from C12 to C14. C14 to C18 saturated acyl-CoA esters and C18:1-CoA binds with similar and very high affinities to FACI-24. In >0.1 M salt, FACI-24 binds acyl-CoAs with higher affinity and similar specificity as native unmodified bovine ACBP. The Kd for binding of C12-CoA and C16-CoA to native ACBP is 40 and 2.0 nM, respectively (Fulcery et al Biochemical, 1997, 325:423-428; Færgeman et al 1996, Biochemistry, 35:14118-14126). FACI-24 is highly specific for binding long-chain acyl-CoA esters.
(§1) Titration of FACI with acyl-CoAs was done using a SPEX FLOUROLOG (Industries Inc, Edison N.J., USA) with excitation at 387 nm and emission at 460 nm, with both excitation and emission slits set to 4.5 nm. FACI (0.5-4.5 uM, as indicated) was dissolved in 1.5 ml binding buffer (10 mM HEPES 150 mM NaCl, 5 mM KCl, 1 mM Na2HPO4, pH 7.4) and titrated with a 10 μM acyl-CoA dissolved in binding buffer, with or without FACI added, as indicated. Fluorescence emission values (counts per second) measured without FACI added to the ligand stock solution were corrected for titrand dilution.
Up to four parameters were fitted in this way, these were B, representing the point of saturation on the X axis, H, representing the maximum fluorescence, i.e. the fluorescence at saturating concentration of acyl-CoA, L, the minimum fluorescence value, i.e. the fluorescence of FACI-24 alone in buffer, and K, the Kd value lor the acyl-CoA in question. Initial estimates for the fittable parameters were typically: B=1, H=maximum fluorescence value measured, L=minimum fluorescence value measured (at acyl-CoA-concentration=0), and K as judged from the raw data, typically from 0.0001 uM to 0.1 uM for acyl-CoA longer than C10:0-CoA.
For each acyl-CoA at least two titrations and fittings were performed. To consider two or more titrations of the same acyl-CoA together and obtain a Kd value using all these titrations, both axes of the raw data were standardised using the fitted values of B, H and L in this way:
X axis standard=(raw X axis values)/Bfitted
Y axis standard=[(raw Y axis values)−Lfitted]/[Hfitted−Lfitted]
In this way all Y axis values should come to lie between 0 and 1 and the X axis value should be 1 at the point of saturation (FACI-24:acyl-CoA 1:1). Such adjusted data were pooled and fitted using DataFit. Typically, both H and B fitted to values close to 1 and L fitted to values close to 0. K was typically fitted to values somewhere between the two values obtained for the raw data.
This could be overcome by removing B from the fittable parameters list and instead setting it to a constant value of 1 and fitting again. This was typically done for both the raw and the standardised data.

M24C-badan ACBP = molecular target: T2, M24C-badan ACBP (Bos taurus, UniProt P07107, M25C); experiment: Isothermal titration micro calorimetry of acyl-CoA binding to M24C-badan ACBP; set-up: species or system bovine; conditions: isotermal titration micro calorimetry
T2 construct: made in house; host or cells: E. coli BL21(DE3)pLysS, pET3a vector
T2 sequence (P07107 2-87 M25C): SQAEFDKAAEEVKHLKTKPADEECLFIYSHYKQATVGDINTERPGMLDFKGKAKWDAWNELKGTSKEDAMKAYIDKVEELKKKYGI
Method: Quantitative determination of binding affinities (KD) were performed by isothermal titration micro calorimetry as previously described (Faergeman et. al., 1996; Biochemistry 35, 14118-14126). Qualitative evaluation of relative binding affinities were determined by isoelectrical focusing using the Pharmacia Fast Gel system according to the prescriptions given by the manufacture. Fluorescence emission changes induced by acyl-CoA binding to badan modified protein were determined as follows: 5 μl portions of acyl-CoAs were added from stock solutions disolved in binding buffer, (10 mM Hepes, 150 mM NaCL, 1 mM NaHPO4, pH 7.4) containing 3.4 μM Badan derivatized protein to a 1 ml 3.4 μM solution of the Badan derivatized ACBP in the same buffer. The fluorescence emission was measured on a SPEX FLOUROLOG (Industries Inc, Edison N.J., USA) with excitation at 400 nm and emission scan from 400 nm to 550 nm. The concentration of acyl-CoA in the aqueous phase was determined from the fluorescence emission sensitivities at 495 and 470 nm repectively essentially by the method described by (Grynkiewickz et. al.,1985, J. Biol. Chem. 260, 3440-3450) according to which: […]

FACI-24 [2] = molecular target: T1, FACI-24; experiment: Fluorescence emission change of FACI-24 on titration with CoA and acyl-CoA esters; format: binding, bovine; conditions: emission maximum without ligand 510 nm; excitation 400 nm
Method: (§2) Quantitative determination of binding affinities (KD) were performed by isothermal titration micro calorimetry as previously described (Faergeman et. al., 1996; Biochemistry 35, 14118-14126). Qualitative evaluation of relative binding affinities were determined by isoelectrical focusing using the Pharmacia Fast Gel system according to the prescriptions given by the manufacture. Fluorescence emission changes induced by acyl-CoA binding to badan modified protein were determined as follows: 5 μl portions of acyl-CoAs were added from stock solutions disolved in binding buffer, (10 mM Hepes, 150 mM NaCL, 1 mM NaHPO4, pH 7.4) containing 3.4 μM Badan derivatized protein to a 1 ml 3.4 μM solution of the Badan derivatized ACBP in the same buffer. The fluorescence emission was measured on a SPEX FLOUROLOG (Industries Inc, Edison N.J., USA) with excitation at 400 nm and emission scan from 400 nm to 550 nm. The concentration of acyl-CoA in the aqueous phase was determined from the fluorescence emission sensitivities at 495 and 470 nm repectively essentially by the method described by (Grynkiewickz et. al.,1985, J. Biol. Chem. 260, 3440-3450) according to which:
(§3) Fluorescence titration emission spectra from 415 nm to 550 nm (excitation at 400 nm) were performed for CoA, C4:0-, C8:0-, C12:0-, C16:0-, and C20:0-CoA with all four mutated and badan modified proteins.
The emission maximum of FACI-24 without ligand added was 510 nm and titration with CoA, C4:0-, C8:0-, C12:0-, […], C16:0- and C20:0-CoA caused 0, 16, 34, 42, 46 and 46 nm downshift in emission maximum, respectively (results not shown). C16:0-CoA induced a 5,5 fold increase in emission at 464 nm (FIG. 10).
as §1

FACI53 = molecular target: T3, FACI53 (Bos taurus, UniProt P07107, A54C); experiment: Fluorescence emission change of FACI-53 on titration with CoA and acyl-CoA esters; format: binding, bovine
T3 construct: badan (6-bromoacetyl-2-dimethylaminonaphthalene) fluorophore on the introduced Cys-53; made in house; host or cells: E. coli BL21(DE3)pLysS, pET3a vector
T3 sequence (P07107 2-87 A54C): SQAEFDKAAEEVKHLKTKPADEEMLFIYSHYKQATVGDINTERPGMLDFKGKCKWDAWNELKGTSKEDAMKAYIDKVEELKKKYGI
Method: as §2, §3
Titration of FACI-53 dissolved in binding buffer with the above mentioned acyl-CoA esters produced a smooth downward shift in fluorescence emission maximum from 525 nm when no ligand was present to 508, 503, 490, 492, 496 and 514 with increasing concentrations of CoA, C4:0-, C8:0-, C12:0-, C16:0- and C20:0-CoA respectively.

native bovine ACBP = molecular target: T4, native bovine ACBP (Bos taurus, UniProt P07107); conditions: isothermal titration microcalorimetry, >0.1 M salt; literature; read-out: KD for binding to native bovine ACBP; cited from earlier work
T4 sequence (P07107 1-87): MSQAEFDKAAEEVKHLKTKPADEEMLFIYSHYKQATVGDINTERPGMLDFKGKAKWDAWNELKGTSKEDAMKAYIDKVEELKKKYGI

[3] = Fluorescence response of the Phe-49_Cys49 badan derivative of bovine ACBP to ligands; format: binding; conditions: badan group exposed to the environment
Method: Reference is made to FIG. 2. and FIG. 3. which depict the emission spectra of FACI24 and FACI53 titrated with increasing concentrations of CoA, C4-, C8-, C12-, C16- and C20-CoA esters. The addition of ligand and measurement of emission of FACI24 and FACI53 was performed as described in example 2. The increased addition of ligand to the mutated and modified proteins caused a proportional spectral change. The normal physiological binding profile was confirmed by direct binding studies using isoelectrical focusing as predicted in FIG. 4. […] The results clearly indicate that fluorescence emission at 470 nm may provide a measure for the concentration of free unbound long-chain(>C12)-acyl-CoA ester.
The two sensors presented herein together act as high sensitivity sensors in the chain length range from C8-CoA to C20-CoA. […]
Quantitative determination of binding affinities (KD) were performed by isothermal titration micro calorimetry as previously described (Faergeman et. al., 1996; Biochemistry 35, 14118-14126). Qualitative evaluation of relative binding affinities were determined by isoelectrical focusing using the Pharmacia Fast Gel system according to the prescriptions given by the manufacture. […] The fluorescence emission was measured on a SPEX FLOUROLOG (Industries Inc, Edison N.J., USA) with excitation at 400 nm and emission scan from 400 nm to 550 nm. […]

[4] = Fluorescence titration emission spectra of FACI-46 (negative control); format: binding
From the text: The strategy behind the design of the mutants was based on the tertiary structure of the bovine ACBP/acyl-CoA complex. Both Met-24 and Ala-53 interact directly with the acyl-chain of the acyl-CoA ligand, interacting with the omega-methyl group of long acyl-chains. Positioning of an environmentally sensitive group in one of these positions would therefore be expected to create ligand sensitive probes. Met-46 which is located outside the hydrophobic binding pocket in the loop between helix 2 and 3 was chosen to serve as a negative control which should not be sensitive to ligand binding.
as §3

## CCCCCCCCCCCC(=O)SCCNC(=O)CCNC(=O)[C@H](O)C(C)(C)COP(=O)(O)OP(=O)(O)OC[C@H]1O[C@@H](n2cnc3c(N)ncnc32)[C@H](O)[C@@H]1OP(=O)(O)O [C12:0-CoA, dodecanoyl-CoA]
FACI-24 [1]
  Kd: 10.2 ± 0.81 nM
M24C-badan ACBP
  Kd: 40 nM
FACI-24 [2]
  Downshift in emission maximum of FACI-24: 42 nm
FACI53
  Magnitude of emission of FACI-53, fold increase: 2.7 fold
FACI53; 525 nm when no ligand present, excitation 400 nm
  Fluorescence emission maximum of FACI-53 with ligand: 492 nm
FACI53; emission at 495 nm
  Relative emission of FACI-53 at 495 nm, fold increase: 4.7 fold
Native bovine ACBP
  Kd: 40 nM

B1: Phe-49_Cys49 badan derivative of bovine ACBP: Phe49 to Cys mutant of bovine ACBP labelled with badan, badan group exposed to the environment (conjugate, UniProt P07107 2-87, looked up, variant F49C)
Acyl-CoA-binding protein: SQAEFDKAAEEVKHLKTKPADEEMLFIYSHYKQATVGDINTERPGMLDCKGKAKWDAWNELKGTSKEDAMKAYIDKVEELKKKYGI
modifications: badan label
notes: Phe49 to Cys mutant of bovine ACBP labelled with badan, badan group exposed to the environment
[3]
  Fluorescence response to addition of ligands: did not respond to addition of any of the ligands

B2: FACI-46: badan derivative of M46C-bovine ACBP, negative control (conjugate, UniProt P07107 2-87, looked up, variant M46C)
Acyl-CoA-binding protein: SQAEFDKAAEEVKHLKTKPADEEMLFIYSHYKQATVGDINTERPGCLDFKGKAKWDAWNELKGTSKEDAMKAYIDKVEELKKKYGI
modifications: badan label
notes: badan derivative of M46C-bovine ACBP, negative control
[4]
  Emission spectra changes of FACI-46 with ligands (words): did not show any emission spectra changes with any of the ligands
[4]; listed as FACI46
  Emission spectra changes of FACI-46 with ligands (words): did not show changes in emission spectra with any of the tested ligands
